{
  "source": "patent US7662767B2",
  "about": "“Polynucleotide intercalator interceptors and inhibitors” (Materials Evolution and Development USA, Inc., priority 2000, dated 2010)",
  "key": {"[1]": {"experiment": "Acridine orange self-association (AO-AO dimer), absorbance", "format": "binding", "procedure": "Association constants were calculated using a modification of an equation described by Zaini et al. (1999) to determine equilibrium constants for weakly bound complexes by absorbance spectrophotometry. By definition K=Xd/(Xm* Xm), where K is the binding constant Kassoc, Xd is the concentration of the AO dimer and Xm is the concentration of the AO monomer. Conservation of mass gives Xt=Xm+2*Xd, where Xt is the total concentration of AO in solution. Rearranging the conservation of mass equation gives Xm=Xt−2*Xd, and substituting into the equation for Kassoc and rearranging gives Equation 4: Kassoc(Xt*Xt−4*Xt*Xd+4*Xd*Xd)−Xd=0 EQUATION 4:\nRearranging gives: Xd*Xd−(Xt+1/(4*.Kassoc)*Xd+Xt*Xt/4=0 EQUATION5:\nApplying the quadratic formula (X=[−B±SQRT(B^2−4AC]/2A) to Equation 3-5 and taking a physically reasonable root gives Equation 3-6: Xd=[Xt+1/(4*K)−SQRT(Xt/(2*K)+1/[…])]/2 EQUATION 6:\nWhere SQRT ( ) indicates taking the square root of the content of the parentheses. The fluorescence values at λem 530 nm (F530) is a function of Xt and F530=Xd*ε, where “ε” is the fluorescence yield of the dimer. The equation was solved by non-linear least squares using Prism™ software and binding constants determined. […] Fluorescence values (fi) are reported as raw data normalized to scale and not adjusted by a dilution factor following aliquot additions. Absorbance data taken at 468 nm was also used to calculate the Kassoc for the AO-AO dimer using Equation 6.\nIn the example shown in FIG. 3-1A, absorbance was scanned between 400 nm and 550 nm over a range of AO concentrations from 2.5 μM to 20 μM in a 5 mM solution of HEPES buffer at pH 7.0. […] Note that the absorbance at 492 nm (A492) is indicative of the concentration of the AO monomer, whereas the absorbance at 468 nm (A468) is indicative of the concentration of the AO-AO dimer (Kapuscinski and Kimmel, 1993). […]\nThe absorbance was scanned between 410 nm and 540 nm over a range of AO concentrations from 10 μM-45 μM in a 5 mM solution of […] buffer at pH 7.0 in the presence of 150 mM of NaCl. […]"}, "[2]": {"system": "Drosophila salivary gland polytene chromosome", "experiment": "Removal of DNA binding stains from polytene chromosome bands by xanthine wash", "set-up": "species or system Drosophila melagaster", "details": "for Degree of Stain Removal, Exposure to AM (100 mM) / Degree of Stain Removal, Exposure to CAF (100 mM): 15 minute wash, static, hydrochloride", "procedure": "In another implementation, giant polytene chromosomes were prepared by the squash technique from the salivary gland of Drosophila melagaster larva The salivary gland was placed on a microscope slide, squashed with a glass cover slide, fixed with acidic acid, rinsed with distilled water, and allowed to dry (kindly provided by Linda Chadwell, UTHSCSA-IBT). Three known DNA intercalators, ethidium bromide (98% purity, Aldrich Chemical Company, Milwaukee, Wis.), doxorubicin (98%, Sigma Chemnical Company, St. Louis, Mo.), and acridine orange plus the minor groove binding DNA stain Hoechst 33258 (98%, ACROS Chemical Company, NJ) were prepared in distilled water at a concentration of 1 mM (for chemical structures see FIG. 4-1, where acridine orange (3,6-bis [dimethylamino] acridine) is shown in Panel A, ethidium bromide is shown in Panel B, doxorubicin is shown in Panel C, Hoechst 33258 is shown in Panel D). The slides with prepared chromosomes were immersed in these stains for a period of 30 minutes, rinsed with distilled water, and dried at room temperature. Fluorescence microscopic analysis was conducted at λex 360 nm and photomicrographs were conducted on a Zeiss Model 63 Microscope with a xenon source fluorescent emitter. Photomicrographs were taken using Kodak Gold 35 mm ASA 1600 speed film noting the position of one individual chromosome on the slide. The stained slides were then subjected to 100 mM caffeine or 100 mM aminophylline under static conditions for a period of 15 minutes, rinsed with distilled water, then allowed to dry at room temperature. The presence of the same individual unstained chromosome in the field was confirmed by phase contrast microscopy. The chromosome was viewed again under fluorescence microscopy at […], and color recorded. Slides were re-stained by immersion in the 1 mM stain for a period of 30 minutes, rinsed with distilled water, and dried at room temperature, and the same individual chromosome was examined by fluorescence microscopy and the fluorescence color recorded.\nFIG. 4-3 depicts three photomicrographs of the same Drosophila polytene chromosome: after staining with the DNA minor groove binder Hoechst 33258 dye (Panel A), after rinsing with CAF for 15 minutes (Panel B), and a phase contrast verification of the presence of the chromosome after the CAF rinse (Panel C). Table 4-4 summarizes the results from the experiments using caffeine (CAF) and aminophylline (AM) to remove the following DNA intercalators: doxorubicin, ethidium bromide, acridine orange, and the DNA minor groove binder Hoechst 33258 from their binding sites within polytene chromosomes. […] With all DNA intercalators, the staining of chromosome bands was intense before the xanthine rinses and was again intense following re-staining."}, "[3]": {"system": "chicken erythrocyte nuclear chromatin", "experiment": "Removal of acridine orange from stained chicken erythrocyte nuclear chromatin by xanthine rinse, fluorescence microscopy", "details": "slides stained with 10 mM AO; rinse with 50 mM for 10 minutes"}},
  "data": [
    {"smiles": "CN(C)c1ccc2cc3ccc(N(C)C)cc3nc2c1.Cl", "note": "[AO, 3,6-bis[dimethylamino]acridine hydrochloride]", "values": [
      {"measurement": "K ± S.D.", "setting": "[1]; Absorbance plus NaCl, AO [10-45 μM]", "value": "47,510 ± 2,420 M^−1"},
      {"measurement": "K ± S.D.", "setting": "[1]; Absorbance, AO [2.5-20 μM]", "value": "46,840 ± 5,967 M^−1"},
      {"measurement": "K ± S.D.", "setting": "[1]; Absorbance, AO [10-80 μM]", "value": "49,530 ± 2,953 M^−1"},
      {"measurement": "Re-staining following Xanthine Exposure", "setting": "[2]; 1 mM stain, 30 minutes", "value": "Complete"},
      {"measurement": "Staining before Xanthine Exposure", "setting": "[2]; 1 mM stain, 30 minutes", "value": "Banding"},
      {"measurement": "Degree of Stain Removal, Exposure to AM (100 mM)", "setting": "[2]", "value": "completely removed"},
      {"measurement": "Degree of Stain Removal, Exposure to CAF (100 mM)", "setting": "[2]", "value": "did not completely remove the stain"},
      {"measurement": "Degree of Stain Removal, Exposure to AM (100 mM)", "setting": "[2]; listed as Acridine Orange", "value": "Complete"},
      {"measurement": "Degree of Stain Removal, Exposure to CAF (100 mM)", "setting": "[2]; listed as Acridine Orange", "value": "Almost"}
    ]},
    {"smiles": "Cn1c(=O)c2c(ncn2C)n(C)c1=O", "note": "[1,3,7-trimethyl xanthine (caffeine), 1,3,7-trimethyl xanthine]", "values": [
      {"measurement": "fluorescence intensity after rinse", "setting": "[3]", "value": "reduced the fluorescence intensity to background level"}
    ]}
  ]
}
